Results as given in publication PMC9456008, “Enantiocontrolled Preparation of ϒ-Substituted Cyclohexenones: Synthesis and Kinase Activity Assays of Cyclopropyl-Fused Cyclohexane Nucleosides” (International Journal of Molecular Sciences, 2022).
“Also recorded” adds a separate entry of the source.

Columns and labels:
[1] = tested on: human embryonic lung (HEL) fibroblasts; test: Cytotoxicity in HEL cell cultures (alteration of cell morphology); settings: microscopically detectable alteration of normal cell morphology
Human TK-1 = target: T1, Human TK-1 (Homo sapiens, UniProt P04183); test: Thymidine kinase assay using [CH3-3H]dThd as natural substrate, TK-1; format: biochemical; settings: for IC50: 50% inhibitory concentration for TK-catalyzed conversion of [3H]dThd to its 5'-monophosphate, 1 µM dThd, 37 °C, 30 min
T1 sequence (P04183 1-234): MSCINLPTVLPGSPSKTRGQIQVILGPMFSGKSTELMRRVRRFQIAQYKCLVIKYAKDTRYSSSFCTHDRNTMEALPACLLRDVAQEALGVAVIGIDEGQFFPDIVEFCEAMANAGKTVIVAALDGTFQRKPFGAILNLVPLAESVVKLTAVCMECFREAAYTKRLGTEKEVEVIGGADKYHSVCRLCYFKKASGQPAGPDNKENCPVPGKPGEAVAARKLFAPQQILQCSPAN
Protocol: (§1) Thymidine Kinase Assay Using [CH3-^3H]dThd as the Natural Substrate. The activity of recombinant thymidine kinase 1 (TK-1), TK-2, and herpes simplex virus-1 (HSV-1) TK, and the 50% inhibitory concentration of the test compounds, were assayed in a 50-μL reaction mixture containing 50 mM Tris/HCl, pH 8.0, 2.5 mM MgCl2, 10 mM dithiothreitol, 0.5 mM CHAPS, 3 mg/mL bovine serum albumin, 2.5 mM ATP, 1 µM [methyl-^3H]dThd, and enzyme. The samples were incubated at 37 °C for 30 min in the presence or absence of different concentrations (five-fold dilutions) of the test compounds. At this time, the enzyme reaction still proceeded linearly. Aliquots of 45 µL of the reaction mixtures were spotted on Whatman DE-81 filter paper disks (Whatman, Clifton, NJ, USA). The filters were washed three times for 5 min each in 1 mM ammonium formate, once for 1 min in water, and once for 5 min in ethanol. The radioactivity was determined by scintillation counting.

Human TK-2 = target: T2, Human TK-2 (Homo sapiens, UniProt O00142); test: Thymidine kinase assay using [CH3-3H]dThd as natural substrate, TK-2; format: biochemical; settings: for IC50: 50% inhibitory concentration for TK-catalyzed conversion of [3H]dThd to its 5'-monophosphate, 1 µM dThd, 37 °C, 30 min
T2 sequence (O00142 34-265): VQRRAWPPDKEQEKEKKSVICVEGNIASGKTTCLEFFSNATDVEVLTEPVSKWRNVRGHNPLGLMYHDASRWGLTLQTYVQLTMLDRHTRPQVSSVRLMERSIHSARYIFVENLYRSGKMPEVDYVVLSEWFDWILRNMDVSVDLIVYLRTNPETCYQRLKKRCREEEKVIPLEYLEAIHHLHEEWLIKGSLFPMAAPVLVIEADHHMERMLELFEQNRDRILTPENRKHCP
Protocol: as §1

HSV-1 TK [2] = target: T3, HSV-1 TK (Human herpesvirus 1, UniProt P0DTH5); test: Thymidine kinase assay using [CH3-3H]dThd as natural substrate, HSV-1 TK; format: biochemical
T3 sequence (P0DTH5 whole entry): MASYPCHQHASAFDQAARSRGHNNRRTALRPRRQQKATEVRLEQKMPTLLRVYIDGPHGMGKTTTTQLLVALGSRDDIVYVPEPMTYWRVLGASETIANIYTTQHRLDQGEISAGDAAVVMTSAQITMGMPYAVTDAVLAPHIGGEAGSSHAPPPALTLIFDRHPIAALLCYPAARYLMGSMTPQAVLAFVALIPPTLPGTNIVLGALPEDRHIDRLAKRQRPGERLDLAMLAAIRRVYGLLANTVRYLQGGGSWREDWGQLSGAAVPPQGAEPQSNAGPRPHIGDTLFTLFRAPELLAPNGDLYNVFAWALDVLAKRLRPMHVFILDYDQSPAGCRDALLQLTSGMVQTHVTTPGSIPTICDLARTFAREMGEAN
Protocol: as §1

HSV-1 TK [3] = target: T3, HSV-1 TK; test: Substrate activity for HSV-1 TK by HPLC technology; format: biochemical, herpes simplex virus-1
From the text: Therefore, to evaluate this last point, we performed further studies to test the suitability of these compounds to pass the usual rate-limiting first phosphorylation step. Thus, the affinity of the synthesized compounds 2a–e for the cellular and HSV-1 thymidine kinases (TKs) were investigated (Table 2). […] It was expected that this cytosine analogue might show affinity for HSV-1 TK, as the natural nucleoside (2-deoxycytidine, 2-dC) is known to be recognized by several kinases, including HSV-1 TK; however, that was apparently not the case. […] Therefore, because some of the synthesized analogues were recognized by the virus-encoded nucleoside kinase, the lack of antiherpetic activity could be attributed to the lack of further conversion of the 5′-monophosphate derivative to the 5′-triphosphate or to a low affinity, if any, of the 5′-triphosphate metabolite to the virus-encoded DNA polymerase.

| Compound | Cytotoxicity, minimum cytotoxic concentration [1] [µM] | IC50 (Human TK-1) [µM] | IC50 (Human TK-2) [µM] | IC50 (HSV-1 TK [2]) [µM] | Affinity for human TK-1 / human cellular kinases (in words) (Human TK-1) | Affinity for HSV-1 TK (in words) (HSV-1 TK [2]) | Affinity for mitochondrial TK-2 (in words) (Human TK-2) | Substrate activity for HSV-1 TK, conversion to the monophosphate metabolite (HSV-1 TK [3]) |
| --- | --- | --- | --- | --- | --- | --- | --- | --- |
| Nc1nc2c(ncn2COCCO)c(=O)[nH]1 [Acyclovir] | > 250 |  |  |  |  |  |  |  |
| Nc1ncnc2c1ncn2[C@H]1CC[C@@H](CO)[C@@H]2C[C@@H]21 [Compound 2a] |  | > 771 | > 771 | 578 |  |  |  |  |
| O=c1ccn([C@H]2CC[C@@H](CO)[C@@H]3C[C@@H]32)c(=O)[nH]1 [Compound 2c] |  | > 846 | > 846 | > 846 |  |  |  |  |
| Cc1cn([C@H]2CC[C@@H](CO)[C@@H]3C[C@@H]32)c(=O)[nH]c1=O [Compound 2d] |  | > 799 | > 799 | 208 | not for human TK-1 | display affinity |  |  |
| Nc1ccn(C2CCC(CO)C3CC32)c(=O)n1 (stereo not drawn) [Compound 2e, 4-Amino-1-[(1′S,2′S,5′R,6′R)-5′-(hydroxymethyl)bicyclo [4.1.0]hept-2′-yl]pyrimidin-2(1H)-one] | > 100 | > 425 | > 425 | > 425 |  | did not display affinity |  |  |
| Nc1ccn(C[C@@H](CO)OCP(=O)(O)O)c(=O)n1 [Cidofovir] | > 250 |  |  |  |  |  |  |  |
| Nc1nc(O)c2ncn(COC(CO)CO)c2n1 [Ganciclovir] | > 100 |  |  |  |  |  |  |  |
| O=c1[nH]c(=O)n([C@H]2C[C@H](O)[C@@H](CO)O2)cc1/C=C/Br [Brivudin] | > 250 |  |  |  |  |  |  |  |
| Nc1nc2c(ncn2[C@H]2CC[C@@H](CO)[C@@H]3C[C@@H]32)c(=O)[nH]1 [Compound 2b] |  | > 726 | 338 | 5.81 | not for human TK-1 | excellent affinity; also recorded: display affinity | some marginal affinity | good substrate |
